Measured values published in patent US11136311B2, “Heteroaromatic derivatives as NIK inhibitors” (Janssen Pharmaceutica NV, priority 2016, dated 2021).
Read-outs that look alike come from different tables or passages of the source.

What was measured:
[1] = target: recombinant human NF-kappaB-inducing kinase (NIK/MAP3K14) (Homo sapiens (Human), UniProt Q99558); assay: Inhibition of auto-phosphorylation of recombinant human NIK/MAP3K14 activity (AlphaScreen); format: biochemical; details: averaged values over all measurements on all batches
Procedure, shortened: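 AlphaScreen read-out, using anti-phospho-IKK Ser176/180 antibody, tracked NIK autophosphorylation after 1 h at 25° C. Reactions held 0.2 nM GST-NIK, 25 microM ATP and compound in 1% DMSO, Tris pH 7.5 buffer. IC50 fitted sigmoidally to blank-subtracted inhibition data.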

[2] = test system: P-IKKα levels in L363 cells; assay: Effect of compounds on P-IKKα levels in L363 (NIK translocated multiple myeloma) cells; format: cell-based, human
Description: Effect of compounds on P-IKKα levels in L363 (NIK translocated multiple myeloma) cells
All compounds tested were dissolved in DMSO and further dilutions were made in culture medium. Final DMSO concentration was 1% (v/v) in cell assays. The human L363 cells (ATCC) were cultured in RPMI 1640 medium supplemented with GlutaMax and 10% fetal calf serum (PAA). Cells were routinely maintained at densities of 0.2×10^6 cells per ml-1×10^6 cells per ml at 37° C. in a humidified 5% CO2 atmosphere. Cells were passaged twice a week splitting back to obtain the low density. Cells were seeded in 96 well plates (Nunc 167008) at 2×10^6 per ml media in a volume of 75 μl per well plus 25 μl 1 μg/ml recombinant human B-cell activating factor (BAFF/BLyS/TNFSF13B). Seeded cells were incubated at 37° C. in a humidified 5% CO2 atmosphere for 24 hr. Drugs and/or solvents were added (20 μl) to a final volume of 120 μl. Following 2 hr treatment plates were removed from the incubator and cell lysis was achieved by the addition of 30 μl 5× lysis buffer followed by shaking on a plate shaker at 4° C. for 10 min. At the end of this incubation lysed cells were centrifuged at 800×g for 20 min at 4° C. and the lysate was assessed for P-IKKα levels by sandwich immuno-assay carried out in anti-rabbit antibody coated Mesoscale plates. Within an experiment, the results for each treatment were the mean of 2 replicate wells. For initial screening purposes, compounds were tested using an 8 point dilution curve (serial 1:3 dilutions). For each experiment, controls (containing MG132 and BAFF but no test drug) and a blank incubation (containing MG132 and BAFF and 10 μM ADS125117, a test concentration known to give full inhibition) were run in parallel. The blank incubation value was subtracted from all control and sample values. To determine the IC50 a sigmoidal curve was fitted to the plot of % inhibition of control P-IKKα levels versus Log10 compound concentration.

[3] = test system: JJN-3 cells; assay: Antiproliferative activity on JJN-3 (NIK translocated) multiple myeloma cells (CellTiter-Glo); format: cell-based, human; details: read-out: JJN-3 Proliferation inhibition (IC50 (nM))
Procedure, shortened: (§1)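 Viability was read by CellTiter-Glo after 96 hr compound exposure (9-point, 1:3 serial dilutions; 0.3% DMSO final). JJN-3 and KMS12-BM cells were seeded at 15000 and 20000 per well respectively in RPMI 1640/10% FCS; blank-subtracted signals were given as percent of drug-free controls.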

[4] = test system: KMS12-BM cells; assay: Antiproliferative activity on KMS12-BM (NIK WT) multiple myeloma cells (CellTiter-Glo); format: cell-based, human; details: read-out: KMS-12 Proliferation inhibition (IC50 (nM))
Procedure, shortened: as §1

[5] = Homo sapiens, L-363, L363 cells, averaged values, read-out: Inhibition of pIKKα_L-363 (IC50 (nM))
[6] = Homo sapiens, JJN-3, 96 h, JJN-3 (NIK translocated) cells, 96 hr, averaged values
[7] = Homo sapiens, KMS-12-BM, 96 h, KMS12-BM (NIK WT) cells, 96 hr, averaged values
[8] = L363 cells, averaged values, read-out: Inhibition of pIKKα_L-363 (IC50 (nM))
[9] = JJN-3 (NIK translocated) cells, 96 hr, averaged values
[10] = KMS12-BM (NIK WT) cells, 96 hr, averaged values

recombinant human NF-kappaB-inducing kinase (NIK/MAP3K14), sequence (Q99558 whole entry): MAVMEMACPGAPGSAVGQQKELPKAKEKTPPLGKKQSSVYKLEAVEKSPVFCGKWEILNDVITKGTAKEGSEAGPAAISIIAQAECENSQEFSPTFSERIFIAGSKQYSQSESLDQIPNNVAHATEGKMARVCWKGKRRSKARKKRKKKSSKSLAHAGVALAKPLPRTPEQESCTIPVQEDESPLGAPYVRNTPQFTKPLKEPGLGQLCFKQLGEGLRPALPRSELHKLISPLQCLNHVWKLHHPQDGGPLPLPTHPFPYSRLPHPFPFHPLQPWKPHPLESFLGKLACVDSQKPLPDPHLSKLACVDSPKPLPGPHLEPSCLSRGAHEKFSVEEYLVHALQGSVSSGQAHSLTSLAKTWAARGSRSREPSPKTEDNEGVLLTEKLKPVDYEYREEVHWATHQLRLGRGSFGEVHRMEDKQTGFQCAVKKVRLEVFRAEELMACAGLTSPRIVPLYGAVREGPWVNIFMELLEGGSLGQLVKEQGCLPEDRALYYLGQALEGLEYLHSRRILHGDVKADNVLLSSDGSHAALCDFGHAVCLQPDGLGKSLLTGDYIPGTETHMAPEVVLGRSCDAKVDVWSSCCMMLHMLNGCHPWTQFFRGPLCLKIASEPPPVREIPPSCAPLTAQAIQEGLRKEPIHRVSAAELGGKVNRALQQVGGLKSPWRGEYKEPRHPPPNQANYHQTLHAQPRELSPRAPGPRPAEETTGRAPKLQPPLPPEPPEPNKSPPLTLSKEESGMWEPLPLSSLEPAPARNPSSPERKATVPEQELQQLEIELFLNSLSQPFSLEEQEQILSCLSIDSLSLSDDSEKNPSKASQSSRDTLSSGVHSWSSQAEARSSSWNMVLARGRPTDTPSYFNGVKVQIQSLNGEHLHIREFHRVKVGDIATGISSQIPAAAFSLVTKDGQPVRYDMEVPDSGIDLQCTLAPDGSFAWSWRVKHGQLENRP

C[C@]1(CO)CNc2c(C#N)cc(-c3ccnc(Nc4cc(Cl)nn4C[C@H]4COCCO4)n3)cc21 [Compound 133]
IC50 [1]: 6.9 nM | IC50 [2, 5]: 65 nM | IC50 [3, 6]: 389 nM | IC50 [4, 7]: 6610 nM

C[C@]1(CO)CNc2c(C#N)cc(-c3ccnc(Nc4cc(Cl)nn4C[C@@H]4COCCO4)n3)cc21 [Compound 126]
IC50 [1]: 4.8 nM | IC50 [2, 5]: 170 nM | IC50 [3, 6]: 468 nM | IC50 [4, 7]: > 10000 nM

CC(C)CCc1c(Nc2nccc(-c3cc(C#N)c4c(c3)[C@@](C)(CO)CN4)n2)cnn1C[C@@H]1COCCO1 [Compound 121]
IC50 [1]: 5 nM | IC50 [2, 5]: 25 nM | IC50 [3, 6]: 282 nM | IC50 [4, 7]: > 10000 nM

CN1CCN(Cc2nn(CC(F)F)cc2Nc2nccc(-c3cc(C#N)c4c(c3)[C@@](C)(CO)CN4)n2)CC1 [Compound 185]
IC50 [1]: 6 nM | IC50 [2, 5]: 20 nM | IC50 [3, 6]: 91 nM | IC50 [4, 7]: > 10000 nM

COCCn1nc(C)cc1Nc1nccc(-c2cc(C#N)c3c(c2)[C@@](C)(CO)CN3)n1 [Compound 42]
IC50 [1]: 4.2 nM | IC50 [2, 5]: 68 nM | IC50 [3, 6]: 398 nM | IC50 [4, 7]: 5980 nM

CC(C)Cn1nc(P(C)(C)=O)cc1Nc1nccc(-c2cc(C#N)c3c(c2)[C@@](C)(CO)CN3)n1 [Compound 119]
IC50 [1]: 9.6 nM | IC50 [2, 5]: 43 nM | IC50 [3, 6]: 3160 nM | IC50 [4, 7]: > 10000 nM

Cc1cc(Nc2nccc(-c3cc(C#N)c4c(c3)[C@@](C)(CO)CN4)n2)n(CC(=O)O)n1 [Compound 135]
IC50 [1]: 5.1 nM | IC50 [2, 5]: 229 nM | IC50 [3, 6]: > 10000 nM | IC50 [4, 7]: > 10000 nM

CC(C)CCc1nn(CCN(C)C)cc1Nc1nccc(-c2cc(C#N)c3c(c2)[C@@](C)(CO)CN3)n1 [Compound 101]
IC50 [1]: 6 nM | IC50 [2, 5]: 234 nM | IC50 [3, 6]: 1510 nM | IC50 [4, 7]: 5250 nM

Cc1cc(Nc2nccc(-c3cc(C#N)c4c(c3)[C@@](C)(CO)CN4)n2)n(CCC2(C)COC2)n1 [Compound 154]
IC50 [1]: 4.9 nM | IC50 [2, 5]: 15 nM | IC50 [3, 6]: 646 nM | IC50 [4, 7]: 2290 nM

C[C@]1(CO)CNc2c(C#N)cc(-c3ccnc(Nc4cnn(CCN5CCOCC5)c4Cl)n3)cc21 [Compound 208]
IC50 [1]: 2 nM | IC50 [2, 5]: 4 nM | IC50 [3, 6]: 48 nM | IC50 [4, 7]: ~4790 nM

Cc1cc(Nc2nccc(-c3cc(C#N)c4c(c3)[C@@](C)(CO)CN4)n2)n(CC2CCCN(C)C2)n1 (single isomer, unassigned) [Compound 140]
IC50 [1]: 8.3 nM | IC50 [2, 8]: 145 nM | IC50 [3, 9]: 174 nM | IC50 [4, 7]: 6460 nM

C[C@@]1(CO)CNc2c(C#N)cc(-c3ccnc(Nc4cnn(CCC5CC5)c4CN4CCOCC4)n3)cc21 [Compound 159]
IC50 [1]: 10 nM | IC50 [2, 8]: 91 nM | IC50 [3, 9]: 1510 nM | IC50 [4, 10]: > 10000 nM

CC(C)Cn1nc(CO)cc1Nc1nccc(-c2cc(C#N)c3c(c2)[C@@](C)(CO)CN3)n1 [Compound 151]
IC50 [1]: 2 nM | IC50 [2, 5]: 13 nM | IC50 [3, 6]: 871 nM | IC50 [4, 7]: 7080 nM

Cc1cc(Nc2nccc(-c3cc(C#N)c4c(c3)C(C)(CO)CN4)n2)n(CC2CCN(CC(=O)N(C)C)CC2)n1 (stereo not drawn) [Compound 136]
IC50 [1]: 7.2 nM | IC50 [2, 5]: 562 nM | IC50 [3, 6]: 724 nM | IC50 [4, 7]: > 10000 nM

C[C@]1(CO)CNc2c(C#N)cc(-c3ccnc(Nc4cn(CC(F)F)nc4OC4CC4)n3)cc21 [Compound 218]
IC50 [1]: 2.8 nM | IC50 [2, 5]: 7 nM | IC50 [3, 6]: 38 nM | IC50 [4, 7]: ~7430 nM

C[C@]1(CO)CNc2c(C#N)cc(-c3cc(Nc4cn(CC(F)F)nc4C4CCOCC4)ncn3)cc21 [Compound 220]
IC50 [1]: 5.6 nM | IC50 [2, 5]: 11 nM | IC50 [3, 6]: 195 nM | IC50 [4, 7]: > 10000 nM

CNC(=O)c1cc(Nc2nccc(-c3cc(C#N)c4c(c3)[C@@](C)(CO)CN4)n2)n(C(C)C)n1 [Compound 183]
IC50 [1]: 22 nM | IC50 [2, 5]: 35 nM | IC50 [3, 6]: 1410 nM | IC50 [4, 7]: ~9770 nM

C[C@]1(CO)CNc2c(C#N)cc(-c3ccnc(Nc4cc(Cl)nn4C[C@H]4CCCO4)n3)cc21 [Compound 114]
IC50 [1]: 6 nM | IC50 [2, 5]: 30 nM | IC50 [3, 6]: 151 nM | IC50 [4, 7]: 1070 nM

Cc1cc(Nc2nccc(-c3cc(C#N)c4c(c3)[C@@](C)(CO)CN4)n2)n(CC2COCCO2)n1 (single isomer, unassigned) [Compound 85]
IC50 [1]: 9.8 nM | IC50 [2, 8]: 31 nM | IC50 [3, 9]: 380 nM | IC50 [4, 10]: ~4900 nM

C[C@]1(CO)CNc2c(C#N)cc(-c3ccnc(Nc4cnn(CCN5CC6COCC6C5)c4N4CCOCC4)n3)cc21 (stereo partly drawn) [Compound 200]
IC50 [1]: 5.9 nM | IC50 ([2]; Homo sapiens, L-363, read-out: Inhibition of pIKKα_L-363 (IC50 (nM))): 20 nM | IC50 ([3]; Homo sapiens, JJN-3, 96 h): 3550 nM | IC50 ([4]; Homo sapiens, KMS-12-BM, 96 h): > 10000 nM

C[C@]1(CO)CNc2c(C#N)cc(-c3ccnc(Nc4cc(C(=O)N5CCCC5)n(C5CCCC5)n4)n3)cc21 [Compound 213]
IC50 [1]: 5.6 nM | IC50 [2, 5]: 27 nM | IC50 [3, 6]: 95 nM | IC50 [4, 7]: > 10000 nM

Cc1cc(Nc2nccc(-c3cc(C#N)c4c(c3)[C@@](C)(CO)CN4)n2)nn1CCC(C)(C)O [Compound 109]
IC50 [1]: 3.6 nM | IC50 [2, 5]: 11 nM | IC50 [3, 6]: 50 nM | IC50 [4, 7]: 468 nM

Cn1ccc(Nc2nccc(-c3cc(C#N)c4c(c3)[C@@](C)(CN3CCN(C5CC5)CC3)CN4)n2)n1 [Compound 176]
IC50 [1]: 32 nM | IC50 [2, 5]: 76 nM | IC50 [3, 6]: 65 nM | IC50 [4, 7]: ~3310 nM

COCCCn1nc(C)cc1Nc1nccc(-c2cc(C#N)c3c(c2)[C@@](C)(COC(C)=O)CN3)n1 [Compound 177]
IC50 [1]: 10 nM | IC50 [2, 5]: 28 nM | IC50 [3, 6]: 81 nM | IC50 [4, 7]: > 10000 nM

CNC(=O)c1nn(CC(F)F)cc1Nc1nccc(-c2cc(C#N)c3c(c2)[C@@](C)(CO)CN3)n1 [Compound 187]
IC50 [1]: 7.2 nM | IC50 [2, 5]: 11 nM | IC50 [3, 6]: ~1380 nM | IC50 [4, 7]: > 10000 nM

CC(C)CCc1nn(C)cc1Nc1nccc(-c2cc(C#N)c3c(c2)[C@@](C)(CO)CN3)n1 [Compound 100]
IC50 [1]: 2.1 nM | IC50 [2, 5]: ~15 nM | IC50 [3, 6]: 54 nM | IC50 [4, 7]: > 10000 nM

CC(C)CCc1c(Nc2nccc(-c3cc(C#N)c4c(c3)[C@@](C)(CO)CN4)n2)cnn1Cc1nccn1C [Compound 117]
IC50 [1]: 6 nM | IC50 [2, 5]: 11 nM | IC50 [3, 6]: 269 nM | IC50 [4, 7]: > 10000 nM

Cc1cc(Nc2nccc(-c3cc(C#N)c4c(c3)[C@@](C)(CO)CN4)n2)n(CC2CCN(C)CC2)n1 [Compound 83]
IC50 [1]: 10 nM | IC50 [2, 5]: 514 nM | IC50 [3, 6]: 111 nM | IC50 [4, 7]: 148 nM

Cc1cc(Nc2nccc(-c3cc(C#N)c4c(c3)[C@@](C)(CO)CN4)n2)n(CC(=O)N(C)C2CC2)n1 [Compound 89]
IC50 [1]: 3.7 nM | IC50 [2, 5]: ~85 nM | IC50 [3, 6]: 427 nM | IC50 [4, 7]: > 10000 nM

Cc1cc(Nc2nccc(-c3cc(C#N)c4c(c3)[C@@](C)(CO)CN4)n2)n(CC2(F)CCN(C)CC2)n1 [Compound 131]
IC50 [1]: 5.9 nM | IC50 [2, 5]: 166 nM | IC50 [3, 6]: 224 nM | IC50 [4, 7]: > 10000 nM

Cc1cc(Nc2nccc(-c3cc(C#N)c4c(c3)[C@@](C)(CO)CN4)n2)n(CCC2CC2)n1 [Compound 96]
IC50 [1]: 1.6 nM | IC50 [2, 5]: 12 nM | IC50 [3, 6]: 76 nM | IC50 [4, 7]: 3800 nM

Cc1cc(Nc2nccc(-c3cc(C#N)c4c(c3)[C@@](C)(CO)CN4)n2)n(CCC(C)(C)O)n1 [Compound 108]
IC50 [1]: 4.1 nM | IC50 [2, 5]: 14 nM | IC50 [3, 6]: ~724 nM | IC50 [4, 7]: ~3160 nM

Cc1cc(Nc2nccc(-c3cc(C#N)c4c(c3)[C@@](C)(CO)CN4)n2)n(CC2(C)COC2)n1 [Compound 111]
IC50 [1]: 9.3 nM | IC50 [2, 5]: ~331 nM | IC50 [3, 6]: 355 nM | IC50 [4, 7]: 5130 nM
